Assay results reported in US20240209028A1, “CNP COMPOUNDS” (priority 2022, published 2024).
Starred links: 1 amine or outer side, 2 acyl side, 3 side chain; linkers in the order of their positions; H or OH if unused. Positions of bridges follow the written chain, without caps; N, C: chain ends. Residues, ends and D or L forms follow the SMILES beside them. *: point of attachment. C18 diacid = O=C(O)CCCCCCCCCCCCCCCCC(=O)*; γGlu = O=C(O)[C@H](CCC(=O)[*:2])N[*:1]; AEEA = NCCOCCOCC(=O)O

molecular target: T1, human natriuretic peptide receptor 2 (hNPR2) (Homo sapiens, UniProt P20594); assay: In vitro hNPR2 activity assay (cGMP GloSensor reporter, HEK293); format: cell-based; settings: potency relative to CNP22 (0065)
T1 construct: expressed in transfected cells; host or cells: HEK293 (ATCC CRL-1573), clone 35, co-transfected with pGloSensor-42F
T1 sequence (P20594 23-1047): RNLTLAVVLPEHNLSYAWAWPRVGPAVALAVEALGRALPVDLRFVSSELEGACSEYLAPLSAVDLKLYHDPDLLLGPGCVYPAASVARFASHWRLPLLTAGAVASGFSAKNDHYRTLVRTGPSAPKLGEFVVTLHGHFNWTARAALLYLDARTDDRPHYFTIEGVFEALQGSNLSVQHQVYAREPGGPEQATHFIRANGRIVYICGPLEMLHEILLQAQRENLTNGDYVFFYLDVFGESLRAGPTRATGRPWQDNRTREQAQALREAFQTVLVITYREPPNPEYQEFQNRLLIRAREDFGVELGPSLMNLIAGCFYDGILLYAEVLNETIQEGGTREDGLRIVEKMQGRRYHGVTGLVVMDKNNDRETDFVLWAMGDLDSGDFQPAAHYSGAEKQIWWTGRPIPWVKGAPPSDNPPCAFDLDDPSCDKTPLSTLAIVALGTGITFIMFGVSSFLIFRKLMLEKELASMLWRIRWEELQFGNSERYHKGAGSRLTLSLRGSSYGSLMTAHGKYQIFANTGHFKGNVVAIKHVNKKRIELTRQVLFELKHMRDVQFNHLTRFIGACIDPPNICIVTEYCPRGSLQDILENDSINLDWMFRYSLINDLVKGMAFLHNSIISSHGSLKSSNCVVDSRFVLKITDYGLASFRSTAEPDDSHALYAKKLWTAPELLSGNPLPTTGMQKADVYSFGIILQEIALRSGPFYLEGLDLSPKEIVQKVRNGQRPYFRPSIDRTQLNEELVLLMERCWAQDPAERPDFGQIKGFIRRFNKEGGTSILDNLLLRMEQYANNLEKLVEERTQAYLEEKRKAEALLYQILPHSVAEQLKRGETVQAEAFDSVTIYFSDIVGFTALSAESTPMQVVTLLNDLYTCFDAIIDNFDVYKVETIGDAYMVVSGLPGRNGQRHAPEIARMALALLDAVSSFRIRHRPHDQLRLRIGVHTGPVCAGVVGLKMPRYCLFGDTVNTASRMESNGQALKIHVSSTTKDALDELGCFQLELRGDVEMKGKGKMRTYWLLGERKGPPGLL
Procedure, shortened: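 Potency is the EC50 from a four-parameter logistic fit, also expressed relative to the in-plate CNP22 control (×100), with at least two replicates. Compounds (ten concentrations, […], HSA-free diluent with 1% OVA, 0.01% Tween20) were incubated 30 min at 37 °C on HEK293 cells co-expressing hNPR2 and a GloSensor cGMP luciferase. Luminescence detected with Bright-Glo.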

Row | SMILES | hNPR2 0% HSA. [EC50% rel CNP] [%]
1 | CC[C@H](C)[C@@H]1NC(=O)[C@H](CCCNC(=N)N)NC(=O)[C@H](CC(=O)O)NC(=O)[C@H](CC(C)C)NC(=O)[C@@H]2CCCN2C(=O)[C@H](CC(C)C)NC(=O)CNC(=O)[C@H](Cc2ccccc2)NC(=O)[C@@H](NC(=O)CNC(=O)[C@H](CCC(N)=O)NC(=O)[C@H](CO)NC(=O)[C@H](CC(C)C)NC(=O)CNC(=O)[C@H](CCCCN)NC(=O)[C@H](CCCCN)NC(=O)[C@H](CCC(N)=O)NC(=O)[C@H](C)NC(=O)CNC(=O)[C@H](CCCCN)NC(=O)[C@H](Cc2ccc(O)cc2)NC(=O)[C@H](CCCCN)NC(=O)[C@H](CCCNC(=N)N)NC(=O)[C@H](C)NC(=O)COCCOCCNC(=O)COCCOCCNC(=O)CC[C@H](NC(=O)CC[C@H](NC(=O)CC[C@H](NC(=O)CC[C@H](NC(=O)CC[C@H](NC(=O)CCCCCCCCCCCCCCCCC(=O)O)C(=O)O)C(=O)O)C(=O)O)C(=O)O)C(=O)O)CSSC[C@@H](C(=O)O)NC(=O)CNC(=O)[C@H](CC(C)C)NC(=O)CNC(=O)[C@H](CO)NC(=O)[C@H](CC(C)C)NC(=O)[C@H](CO)NC(=O)CNC1=O [compound 1453] ({C18 diacid-γGlu-γGlu-γGlu-γGlu-γGlu-AEEA-AEEA}-ARKYKGAQKKGLSQGCFGLPLDRIGSLSGLGC-OH; disulfide 16-32) | 33.5
2 | CC[C@H](C)[C@@H]1NC(=O)[C@H](CCCNC(=N)N)NC(=O)[C@H](CC(=O)O)NC(=O)[C@H](CC(C)C)NC(=O)[C@@H]2CCCN2C(=O)[C@H](CC(C)C)NC(=O)CNC(=O)[C@H](Cc2ccccc2)NC(=O)[C@@H](NC(=O)CNC(=O)[C@H](CCC(N)=O)NC(=O)[C@H](CO)NC(=O)[C@H](CO)NC(=O)CNC(=O)[C@H](CCCCN)NC(=O)[C@H](CCCCN)NC(=O)[C@H](CCC(N)=O)NC(=O)[C@H](C)NC(=O)CNC(=O)[C@@H]2CCCN2C(=O)[C@H](C)NC(=O)[C@H](CCC(N)=O)NC(=O)CNC(=O)[C@@H]2CCCN2C(=O)[C@H](C)NC(=O)[C@H](CCC(N)=O)NC(=O)CNC(=O)[C@@H]2CCCN2C(=O)[C@H](C)NC(=O)[C@H](CCC(N)=O)NC(=O)CNC(=O)COCCOCCNC(=O)COCCOCCNC(=O)CC[C@H](NC(=O)CCCCCCCCCCCCCCCCC(=O)O)C(=O)O)CSSC[C@@H](C(=O)O)NC(=O)CNC(=O)[C@H](CC(C)C)NC(=O)CNC(=O)[C@H](CO)NC(=O)[C@H](CC(C)C)NC(=O)[C@H](CO)NC(=O)CNC1=O [compound 1457] ({C18 diacid-γGlu-AEEA-AEEA}-GQAPGQAPGQAPGAQKKGSSQGCFGLPLDRIGSLSGLGC-OH; disulfide 23-39) | 79.4
3 | CC[C@H](C)[C@@H]1NC(=O)[C@H](CCCNC(=N)N)NC(=O)[C@H](CC(=O)O)NC(=O)[C@H](CC(C)C)NC(=O)[C@@H]2CCCN2C(=O)[C@H](CC(C)C)NC(=O)CNC(=O)[C@H](Cc2ccccc2)NC(=O)[C@@H](NC(=O)CNC(=O)[C@H](CCCCN)NC(=O)[C@H](CO)NC(=O)[C@H](CC(C)C)NC(=O)CNC(=O)[C@H](CCCCN)NC(=O)[C@H](CCCCN)NC(=O)[C@H](CCC(N)=O)NC(=O)[C@H](C)NC(=O)CNC(=O)[C@H](CCCCN)NC(=O)[C@H](Cc2ccc(O)cc2)NC(=O)[C@H](CCCCN)NC(=O)[C@H](CCCNC(=N)N)NC(=O)[C@H](C)NC(=O)COCCOCCNC(=O)COCCOCCNC(=O)CC[C@H](NC(=O)CC[C@H](NC(=O)CC[C@H](NC(=O)CC[C@H](NC(=O)CC[C@H](NC(=O)CCCCCCCCCCCCCCCCC(=O)O)C(=O)O)C(=O)O)C(=O)O)C(=O)O)C(=O)O)CSSC[C@@H](C(=O)O)NC(=O)CNC(=O)[C@H](CC(C)C)NC(=O)CNC(=O)[C@H](CO)NC(=O)[C@H](CC(C)C)NC(=O)[C@H](CO)NC(=O)CNC1=O [compound 1470] ({C18 diacid-γGlu-γGlu-γGlu-γGlu-γGlu-AEEA-AEEA}-ARKYKGAQKKGLSKGCFGLPLDRIGSLSGLGC-OH; disulfide 16-32) | 23.9
4 | CC[C@H](C)[C@@H]1NC(=O)[C@H](CCCNC(=N)N)NC(=O)[C@H](CC(=O)O)NC(=O)[C@H](CC(C)C)NC(=O)[C@@H]2CCCN2C(=O)[C@H](CC(C)C)NC(=O)CNC(=O)[C@H](Cc2ccccc2)NC(=O)[C@@H](NC(=O)CNC(=O)[C@H](CO)NC(=O)[C@H](CO)NC(=O)[C@H](CC(C)C)NC(=O)CNC(=O)[C@H](CCCCN)NC(=O)[C@H](CCCCN)NC(=O)[C@H](CCC(N)=O)NC(=O)[C@H](C)NC(=O)CNC(=O)[C@H](CCCCN)NC(=O)[C@H](Cc2ccc(O)cc2)NC(=O)[C@H](CCCCN)NC(=O)[C@H](CCCNC(=N)N)NC(=O)[C@H](C)NC(=O)[C@H](CCC(N)=O)NC(=O)[C@@H]2CCCN2C(=O)[C@H](Cc2c[nH]cn2)NC(=O)[C@H](CCC(=O)O)NC(=O)[C@H](CCC(N)=O)NC(=O)COCCOCCNC(=O)COCCOCCNC(=O)CC[C@H](NC(=O)CC[C@H](NC(=O)CC[C@H](NC(=O)CC[C@H](NC(=O)CCCCCCCCCCCCCCCCC(=O)O)C(=O)O)C(=O)O)C(=O)O)C(=O)O)CSSC[C@@H](C(=O)O)NC(=O)CNC(=O)[C@H](CC(C)C)NC(=O)CNC(=O)[C@H](CO)NC(=O)[C@H](CC(C)C)NC(=O)[C@H](CO)NC(=O)CNC1=O [compound 1473] ({C18 diacid-γGlu-γGlu-γGlu-γGlu-AEEA-AEEA}-QEHPQARKYKGAQKKGLSSGCFGLPLDRIGSLSGLGC-OH; disulfide 21-37; C-terminus assumed) | 107.7
5 | CC[C@H](C)[C@@H]1NC(=O)[C@H](CCCNC(=N)N)NC(=O)[C@H](CC(=O)O)NC(=O)[C@H](CC(C)C)NC(=O)[C@@H]2CCCN2C(=O)[C@H](CC(C)C)NC(=O)CNC(=O)[C@H](Cc2ccccc2)NC(=O)[C@@H](NC(=O)CNC(=O)[C@H](CCCCN)NC(=O)[C@H](CO)NC(=O)[C@H](CC(C)C)NC(=O)CNC(=O)[C@H](CCCCN)NC(=O)[C@H](CCCCN)NC(=O)[C@H](CCC(N)=O)NC(=O)[C@H](C)NC(=O)CNC(=O)[C@H](CCCCN)NC(=O)[C@H](Cc2ccc(O)cc2)NC(=O)[C@H](CCCCN)NC(=O)[C@H](CCCNC(=N)N)NC(=O)[C@H](C)NC(=O)[C@H](CCC(N)=O)NC(=O)[C@@H]2CCCN2C(=O)[C@H](Cc2c[nH]cn2)NC(=O)[C@H](CCC(=O)O)NC(=O)[C@H](CCC(N)=O)NC(=O)COCCOCCNC(=O)COCCOCCNC(=O)CC[C@H](NC(=O)CC[C@H](NC(=O)CC[C@H](NC(=O)CC[C@H](NC(=O)CC[C@H](NC(=O)CCCCCCCCCCCCCCCCC(=O)O)C(=O)O)C(=O)O)C(=O)O)C(=O)O)C(=O)O)CSSC[C@@H](C(=O)O)NC(=O)CNC(=O)[C@H](CC(C)C)NC(=O)CNC(=O)[C@H](CO)NC(=O)[C@H](CC(C)C)NC(=O)[C@H](CO)NC(=O)CNC1=O [compound 1474] ({C18 diacid-γGlu-γGlu-γGlu-γGlu-γGlu-AEEA-AEEA}-QEHPQARKYKGAQKKGLSKGCFGLPLDRIGSLSGLGC-OH; disulfide 21-37; C-terminus assumed) | 62.5
